This note sets out measurements from US8815879B2, “Substituted 4-(selenophen-2(or-3)-ylamino)pyrimidine compounds and methods of use thereof” (Kasina Laila Innova Pharmaceuticals Private Limited, priority 2010, dated 2014).

Where a name gives a salt, the structure may show the parent alone.

Data set [1] deals with human prostate DU145 cells. Kind of data set: MTT based cell proliferation assay, DU145. Conditions: Homo sapiens, DU-145, 72 h; for inhibition at 10 µg/mL: read-out: Cell Proliferation Inhibition in DU145 (Prostate carcinoma), % at highest screening dose.
Experimental: (§1) MTT [3-(4,5-dimethylthiazol-2-yl)-2,5-diphenyltetrazolium bromide] incorporation based cell proliferation assay was performed using standard procedure. […] The assay was carried out according to the instructions provided by the vendor. […] Vehicle control culture wells received only a maximum of 0.5% DMSO. Thereafter, 0.5 mg/ml of MTT reagent was added to each well and the microplate was incubated further for 4 h at 37° C. in presence of 5% CO2. Finally, the cells were solubilized by adding solubilizing solution and allowed to incubate at 37° C. overnight. After complete solubilization of the formazan crystals the absorbance was read at 540 nm in a microplate reader (BioRad, USA).
(§2) The evaluation of cell proliferation inhibitory activities of the compounds was done in two phases—(1) Screening, and (2) half-maximal inhibitory concentration (IC50) determination. In the screening phase, the cells were treated with three different concentrations e.g. 1, 5 and 10 μg/ml.
The test system of data set [2] is human colorectal carcinoma HT29 cells. Kind of data set: MTT based cell proliferation assay, HT29. The conditions noted are these: Homo sapiens, HT-29, 72 h; for inhibition at 10 µg/mL: read-out: Cell Proliferation Inhibition in HT29 (Colon carcinoma), % at highest screening dose.
Experimental: as §1, §2
Data set [3] concerns human lung carcinoma A549 cells. Kind of data set: MTT based cell proliferation assay, A549. The conditions noted are these: Homo sapiens, A549, 72 h; for inhibition at 10 µg/mL: read-out: Cell Proliferation Inhibition in A549 (Lung carcinoma), % at highest screening dose.

`COc1cc2ncnc(N(C)c3cc(C(C)(C)C)[se]c3C(N)=O)c2cc1OCCCN1CCOCC1` (as salt: HCl) [Compound 22, 3-(N-(6-(3-morpholinopropoxy)-7-methoxyquinazolin-4-yl)-N-methylamino)-5-tert-butylselenophene-2-carboxamide]: the melting point lay within 254 to 256 °C.
The same measure, in the same setting: next, `COC(=O)c1cc(Nc2nc(C)nc3cc(OC)c(OC)cc23)c(C)[se]1` (as salt: HCl) [Compound 25, methyl 4-(6,7-dimethoxy-2-methylquinazolin-4-ylamino)-5-methylselenophene-2-carboxylate]: 276 to 280 °C; `COc1cc2ncnc(Nc3cc(C(C)(C)C)[se]c3C(N)=O)c2cc1OCCCN1CCOCC1` (as salt: HCl) [Compound 3, 3-(6-(3-morpholinopropoxy)-7-methoxyquinazolin-4-ylamino)-5-tert-butylselenophene-2-carboxamide]: 262 to 264 °C.
Still for that read-out and setting: next, `CC(C)(C)c1cc(Nc2ncnc3ncccc23)c(C(N)=O)[se]1` (as salt: HCl) [Compound 12, 5-tert-butyl-3-(pyridino[2,3-d]pyrimidin-4-ylamino)selenophene-2-carboxamide]: 242 to 244 °C.
In turn, `CC(C)(C)c1cc2c(Nc3cc(C(C)(C)C)[se]c3C(N)=O)ncnc2o1` [Compound 16, 3-(6-tert-butylfuro[2,3-d]pyrimidin-4-ylamino)-5-tert-butylselenophene-2-carboxamide] gave a melting point of 288 to 290 °C. In data set [1], the inhibition at 10 µg/mL worked out at 2.81%. In addition, the inhibition at 10 µg/mL in data set [2] was 20.3%. In data set [3], the inhibition at 10 µg/mL was 1.6%.
Consider `CC(C)(C)c1cc(Nc2ncnc3ccc(N)cc23)c(C(N)=O)[se]1` (as salt: HCl) [Compound 8, 3-(6-aminoquinazolin-4-ylamino)-5-tert-butylselenophene-2-carboxamide], for which the melting point fell in the range of 170 to 172 °C.
In turn, `COc1cc2nc(CN(C)C)nc(Nc3cc(C(C)(C)C)[se]c3C(N)=O)c2cc1OC` (as salt: HCl) [Compound 27] registered a melting point of 226 to 228 °C.
On the same count and under the same terms, next, `CCc1c(C)[se]c2ncnc(Nc3cc(C(C)(C)C)[se]c3C(N)=O)c12` (as salt: HCl) [Compound 19, 3-(5-ethyl-6-methylselenopheno[2,3-d]pyrimidin-4-ylamino)-5-tert-butylselenophene-2-carboxamide]: 278 to 280 °C.
`COc1cc2nc(-c3ccc(Cl)cc3)nc(Nc3cc(C(C)(C)C)[se]c3C(N)=O)c2cc1OC` [Compound 28, 3-(2-(4-chlorophenyl)-6,7-dimethoxyquinazolin-4-ylamino)-5-tert-butylselenophene-2-carboxamide] yielded a melting point of 268 to 270 °C. Also, the inhibition at 10 µg/mL in data set [1] was determined as 10.4%. Besides, in data set [2], the inhibition at 10 µg/mL came to 2.69%. In addition, the inhibition at 10 µg/mL in data set [3] amounted to 9%.
Consider `COc1cc2ncnc(Nc3cc(C(N)=O)[se]c3C)c2cc1OCCCN1CCOCC1` (as salt: HCl) [Compound 11, 4-(6-(3-morpholinopropoxy)-7-methoxyquinazolin-4-ylamino)-5-methylselenophene-2-carboxamide], for which the melting point is 252 to 254 °C.
For the compound `COc1cc2ncnc(Oc3cc(C(C)(C)C)[se]c3C(N)=O)c2cc1OC` [Compound 29, 3-(6,7-dimethoxyquinazolin-4-yloxy)-5-tert-butylselenophene-2-carboxamide], the melting point lay in the range of 220 to 224 °C. Further, the inhibition at 10 µg/mL in data set [1] stood at 43%. Also, the inhibition at 10 µg/mL in data set [2] turned out to be 44.6%. Further, in data set [3], the inhibition at 10 µg/mL was found to be 15.6%.
With `CC(C)(C)c1cc(Nc2ncnc3cc(C(C)(C)C)[se]c23)c(C(N)=O)[se]1` (as salt: HCl) [Compound 18, 3-(6-tert-butylselenopheno[3,2-d]pyrimidin-4-ylamino)-5-tert-butylselenophene-2-carboxamide], the melting point is 212 to 214 °C.
Still for that read-out and setting: next, `COc1cc2c(Nc3cc(C(C)(C)C)[se]c3C(N)=O)ncnc2cc1OCCCN1CCOCC1` (as salt: HCl) [Compound 5, 3-(7-(3-morpholinopropoxy)-6-methoxyquinazolin-4-ylamino)-5-tert-butylselenophene-2-carboxamide]: 262 to 264 °C.
As for `COc1cc2c(Nc3cc(C(C)(C)C)[se]c3C(N)=O)ncnc2c(OC)c1OC` [Compound 2, 3-(6,7,8-trimethoxyquinazolin-4-ylamino)-5-tert-butylselenophene-2-carboxamide], the IC50 in data set [1] (read-out: Cell Proliferation Inhibition in DU145 (Prostate carcinoma), IC50) turned out to be 5.98 µM; in data set [2] (read-out: Cell Proliferation Inhibition in HT29 (Colon carcinoma), IC50), 19.3 µM; in data set [3] (read-out: Cell Proliferation Inhibition in A549 (Lung carcinoma), IC50), 31.1 µM.
With `CC(C)(C)c1cc(Nc2ncnc3ccc(NC(=O)CCl)cc23)c(C(N)=O)[se]1` (as salt: HCl) [Compound 9, 3-(6-(2-chloroacetamido)quinazolin-4-ylamino)-5-tert-butylselenophene-2-carboxamide], the melting point fell in the range of 276 to 278 °C.
The compound `COc1cc2ncnc(Nc3cc(C(C)(C)C)[se]c3[N+](=O)[O-])c2cc1OCCCN1CCOCC1` (as salt: HCl) [Compound 4, [5-(tert-butyl)-2-nitroselenophen-3-yl][7-methoxy-6-(3-morpholino-propoxy)quinazolin-4-yl]amine] registered a melting point of 240 to 242 °C.
In the case of `COc1cc2ncnc(Nc3cc(-c4ccccc4)[se]c3C(N)=O)c2cc1OCCCN1CCOCC1` (as salt: HCl) [Compound 7, 3-(6-(3-morpholinopropoxy)-7-methoxyquinazolin-4-ylamino)-5-phenyl-selenophene-2-carboxamide], the melting point fell in the range of 266 to 270 °C.
As to `COc1cc2ncnc(N(CCCl)c3cc(C(C)(C)C)[se]c3C(N)=O)c2cc1OCCCN1CCOCC1` (as salt: HCl) [Compound 23, 3-(N-(6-(3-morpholinopropoxy)-7-methoxyquinazolin-4-yl)-N-(2-chloroethyl)amino)-5-tert-butylselenophene-2-carboxamide], the melting point lay within 190 to 192 °C.
`CCc1c(C)sc2ncnc(Nc3cc(C(C)(C)C)[se]c3C(N)=O)c12` (as salt: HCl) [Compound 13, 3-(5-ethyl-6-methylthiopheno[2,3-d]pyrimidin-4-ylamino)-5-tert-butylselenophene-2-carboxamide] registered a melting point of 258 to 260 °C.
In the case of `COCCOc1cc2ncnc(Nc3cc(C(C)(C)C)[se]c3C(N)=O)c2cc1OCCOC` (as salt: HCl) [Compound 6, 3-(6,7-bis(2-methoxyethoxy)quinazolin-4-ylamino)-5-tert-butylselenophene-2-carboxamide], the melting point is 224 to 226 °C.
As to `COC(=O)c1cc(Nc2ncnc3cc(OC)c(OCCCN4CCOCC4)cc23)c(C)[se]1` (as salt: HCl) [Compound 10, methyl 4-(6-(3-morpholinopropoxy)-7-methoxyquinazolin-4-ylamino)-5-methylselenophene-2-carboxylate], the melting point was in the range of 198 to 200 °C.
As to `COc1cc2nc(C)nc(Nc3cc(C(C)(C)C)[se]c3C(N)=O)c2cc1OC` (as salt: HCl) [Compound 24, 3-(6,7-dimethoxy-2-methylquinazolin-4-ylamino)-5-tert-butylselenophene-2-carboxamide], the melting point lay in the range of 282 to 284 °C.

What is called melting point is the temperature, or range, at which the solid turns liquid.
